In US6528286B1, “Mammalian cell culture process for producing glycoproteins” (Genentech, Inc., priority 1998, dated 2003):
Entries after “also recorded” stand apart in the source; their conditions may differ. Where two headings read alike, the source gives them in different places.

How the values were obtained:
[1] = test system: CHO cells producing TNFR1-IgG1; format: cell-based, Chinese hamster; settings: for SA content on day 9 / SA content on day 12 / Sialic Acid content on day 9 / Sialic Acid content on day 12: TNFR1-IgG1
Source text: The Chinese hamster ovary (CHO)cell line used as the mammalian host cell line was derived from CHO DG44 cells. The gene encoding the soluble type 1 TNFR-IgG1 was introduced into CHO DG44 cells by transfection. This was accomplished using the calcium phosphate technique for introducing DNA into mammalian cells. Clones expressing the TNFR1-IgG1 were amplified in methotrexate yielding high expressing clones and subsequently adapted to serum free medium. These cells were under continuous selective pressure until transferred to nonselective medium for growth and expansion of the inoculum. To provide cells for TNFR1-IgG1 production cultures the cell population described above was expanded from the medium containing methotrexate by serial subcultivations in vessels of increasing volumes to growth medium containing no methotrexate. For these steps of the process the non selective growth medium was DMEM/HAM F-12 based formulation (see, for example, U.S. Pat. No. 5,122,469, herein incorporated by reference in its entirety) with modified concentrations of some components, such as glucose, amino acids, salts, sugar, vitamins glycine, hypoxanthine, and thymidine; recombinant human insulin, hydrolyzed peptone (Protease Peptone 2 or 3, Primatone HS or Primatone RL), a cell protective agent such as Pluronic F68 (pluronic polyol) or the equivalent; Gentamycin; and trace elements. The cultures were controlled at pH 7.2+/−0.4 by the use of CO2 gas (acid) and /or Na2CO3 (base). Temperature was controlled near 37° C. during the growth period. Dissolved oxygen was maintained above 5% of air saturation by direct sparging with air and/or oxygen gas. The growth phase for each culture was followed by a second phase or transition phase wherein culture parameters were changed from growth to production conditions. During this transition phase the temperature of the culture system was decreased, generally to about between 30 and 35° C. and usually about 33° C. Copper chloride was added to the culture medium. Product accumulated during the production phase was analyzed for sialic acid content. […] Sialic acid content was analyzed by the method of Warren, L. (1959) J. Biol. Chem. 234:1971-1975. or the method of Anumula, K. R. (1995) Anal. Biochem. 230:24-30. Glycoprotein production culture was inoculated at 0.2% packed cell volume (PCV). Cells were grown for about 2 days under optimal growth conditions (37° C., low osmolality). When reaching 1% PCV (after about 2 days) the culture conditions were changed from optimal growth to production conditions. This means that growth is slowed under these conditions. This change includes a temperature shift to 33° C. and the addition of a complex feed (a concentrated form of media components). Due to the toxic effects of copper additions higher than 0.2 mM under growth conditions copper additions in the production phase of the glycoprotein production process were investigated. In the process, maximal cell mass was reached after the fifth day in culture. Since significant desialyation occurs after the fifth day in culture and especially significant decrease after about the eighth day in culture (FIG. 1), copper additions of 0.5 and 1.0 mM at day 6 and day 8 of the culture were investigated (FIG. 6). Further experiments were run to test copper additions at other concentrations. 0.38 mM copper was added.

[2] = test system: CHO cells producing TNFR1-IgG1; assay: Incubation of high cell concentration perfusion culture suspension in spinner flasks with CuCl2; format: cell-based, Chinese hamster; settings: 1 mM and 5 mM CuCl2, 24 hours at 33° C.
Protocol: FIG. 2: Sialic acid (SA) content :of TNFR1-IgG1 after incubation of cell culture suspension taken from a perfusion culture at high cell concentration (6% packed cell volume, 77% viability at start of incubation) compared to starting sialic acid content before incubation. A sample of the perfusion culture was removed and incubated in spinner flasks containing 0, 1 mM and 5 mM CuCl2 for 24 hours at 33° C.
Sialic acid content was analyzed by the method of Warren, L. (1959) J. Biol. Chem. 234:1971-1975. or the method of Anumula, K. R. (1995) Anal. Biochem. 230:24-30.
To test the effect of CuCl2 on stabilization of the sialic acid content high cell concentration from a perfusion culture were incubated over night in spinner flasks with the addition 0, 1 and 5 mM CuCl2.

[3] = test system: CHO cells producing TNFR1-IgG1; assay: Impact of CuCl2 on growth and viability of CHO cells under growth conditions; format: cell-based, Chinese hamster
Protocol: CuCl2 was added to the culture medium before inoculation with cells at concentrations from 0 to 3.2 mM. Inhibition of growth could be detected above 0.2 mM.
CuCl2 was added to the culture medium before inoculation with cells at concentrations from 0-3.2 mM. A toxic effect could be observed at concentrations above 0.2 mM. Concentrations above 0.4 mM lead to rapid cell death.
Since heavy metals such as copper are toxic the effects of CuCl2 concentrations from 0-5 mM on growth and viability of CHO cells at 37° C. and 33° C. incubation temperature producing a glycoprotein were investigated(FIGS. 3, 4 and 5). Toxic effects and growth inhibition could be detected above 0.2 mM CuCl2.

CHO-K1 cells = settings: copper-supplemented culture medium; cited from earlier work
[4] = test system: Cytosolic and membrane-associated sialidase I; settings: partially purified extracts from rat liver or rat skeletal muscle; cited from earlier work
HeLa cell = HeLa cell culture medium; cited from earlier work
[5] = 0.5 and 1.0 mM CuCl2 added in production phase
[6] = copper 0.38 mM added on day 6, Table III
[7] = copper 0.5 mM added on day 6, Table II
[8] = copper 0.5 mM added on day 6, Table III
[9] = copper 0.5 mM added on day 8, Table II
[10] = copper 1.0 mM added on day 6, Table II
[11] = copper 1.0 mM added on day 8, Table II

SMILES: [Cl][Cu][Cl] [CuCl2]
- Culture performance and productivity [1, 5]: good culture performance and productivity
- Sialic acid content in production cultures [1, 5]: stabilized
- SA content on day 9 [1, 6]: 5.5 mol/mol
- SA content on day 12 [1, 6]: 4.9 mol/mol
- Sialic Acid content on day 9 [1, 7]: 5.3 mol/mol
- Sialic Acid content on day 12 [1, 7]: 4.9 mol/mol
- SA content on day 9 [1, 8]: 5.3 mol/mol
- SA content on day 12 [1, 8]: 5.0 mol/mol
- Sialic Acid content on day 9 [1, 9]: 5.0 mol/mol
- Sialic Acid content on day 12 [1, 9]: 5.0 mol/mol
- Sialic Acid content on day 9 [1, 10]: 5.0 mol/mol
- Sialic Acid content on day 12 [1, 10]: 5.0 mol/mol
- Sialic Acid content on day 9 [1, 11]: 5.0 mol/mol
- Sialic Acid content on day 12 [1, 11]: 5.0 mol/mol
- Product concentr. on day 9 [1, 6]: 324 mg/L
- Product concentr. on day 12 [1, 6]: 518 mg/L
- Product concentr. on day 9 [1, 7]: 230 mg/L
- Product concentr. on day 12 [1, 7]: 304 mg/L
- Product concentr. on day 9 [1, 8]: 350 mg/L
- Product concentr. on day 12 [1, 8]: 545 mg/L
- Product concentr. on day 9 [1, 9]: 244 mg/L
- Product concentr. on day 12 [1, 9]: 417 mg/L
- Product concentr. on day 9 [1, 10]: 218 mg/L
- Product concentr. on day 12 [1, 10]: 286 mg/L
- Product concentr. on day 9 [1, 11]: 289 mg/L
- Product concentr. on day 12 [1, 11]: 371 mg/L
- Stabilization of sialic acid content of TNFR1-IgG1 [2]: effective in stabilizing the sialic acid content in a dose dependent manner; also recorded: effective in stabilizing the SA content in a dose dependent manner
- Toxic effect at 37 versus 33° C. incubation temperature ([3]; 0-5 mM CuCl2): very similar for 37 °C and 33 °C
- CuCl2 concentration above which inhibition of growth could be detected ([3]; added before inoculation, 0 to 3.2 mM (0-5 mM)): above 0.2 mM
- Copper concentration above which cell death results ([3]; conditions normally associated with cell growth): above 0.4 mM
- CuCl2 concentration above which a toxic effect on viability could be observed ([3]; growth conditions, added before inoculation): above 0.2 mM

SMILES: [Cu+2] [Cu^2+]
- LD50 (CHO-K1 cells): 126 µM
- Copper ion concentration at which sialidase I was inhibited [4]: approximately 1 mM
- Copper ion concentrations that did not interfere with cell growth (HeLa cell): 1-100 μm
